Patent US5994334A, “Androgen synthesis inhibitors” (priority 1997, dated 1999)
Like-named read-outs stand apart in the source and are kept apart here.

Assays:
[1] = target: 17α-hydroxylase/C17,20-lyase; conditions: read-out: Ki (literature); cited from earlier work
[2] = test system: human prostatic tissue (BPH or prostate cancer); assay: Prostate tissue in histoculture, DNA synthesis ([3H]-thymidine uptake); conditions: for inhibition of testosterone-stimulated DNA synthesis (in words), 0.3 μM: inhibitor 0.3 μM; for reversal of testosterone-stimulated DNA synthesis (in words), 1 μM: inhibitor 1 μM, testosterone 1 μM, FIG. 1
Method: We recently developed a histoculture method to evaluate the growth inhibiting properties of the compounds on human prostatic tissue. […] The tissue samples were then incubated for 3 days in fresh medium/treatment containing 2 μCi/ml [^3 H]-thymidine. Tissue was then digested and DNA extracted. For each sample, [^3 H]-thymidine uptake was normalized to DNA content. […] This finding is consistent with the compound acting as an antiandrogen. None of the compounds produced an independent effect on DNA synthesis in the absence of added androgens.

[3] = test system: LNCaP human prostatic cancer cell line; assay: Androgen-dependent growth of LNCaP cells; conditions: for reversal of testosterone-stimulated LNCaP growth (in words): inhibitor 0.3-5 μM, 9 days; for stimulation of LNCaP cell proliferation (in words): hydroxyflutamide 0.3-1 μM
Method: The ability of various inhibitors to reverse the stimulatory effect of testosterone on the growth of the LNCaP human prostatic cancer cell line was tested by comparing cell number in wells treated for 9 days with either drug vehicle only (control), 0.1 nM testosterone only, or 0.1 nM testosterone with inhibitor at 0.3, 1, 2.5, or 5 μM.

[4] = target: T1, Human Prostatic 5α-Reductase (Homo sapiens, UniProt P31213); assay: Inhibition of human prostatic 5α-reductase (prostatic microsomes, [3H]testosterone); conditions: for inhibition at 0.01 µM: read-out: % Inhibition of 5α-reductase, [I] 10 nM; for inhibition at 0.1 µM: read-out: % Inhibition of 5α-reductase, [I] 100 nM
T1 sequence (P31213 1-254): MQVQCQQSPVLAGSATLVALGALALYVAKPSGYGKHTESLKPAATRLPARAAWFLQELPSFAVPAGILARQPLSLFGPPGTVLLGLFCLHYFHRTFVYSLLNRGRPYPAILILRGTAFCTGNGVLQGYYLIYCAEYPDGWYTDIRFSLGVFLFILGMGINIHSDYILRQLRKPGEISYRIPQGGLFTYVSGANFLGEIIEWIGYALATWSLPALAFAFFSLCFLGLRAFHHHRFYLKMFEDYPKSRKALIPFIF

[5] = target: T2, human 17α-hydroxylase/C17,20-lyase (Homo sapiens, UniProt P05093); assay: Inhibition of human testicular 17α-hydroxylase/C17,20-lyase (enzyme complex as a whole); assay type: biochemical; conditions: for inhibition of 17α-hydroxylase/C17,20-lyase (in words): NI = no inhibition
T2 construct: incubating human testicular microsomes; from tissue; host or cells: human testis, microsomes
T2 sequence (P05093 1-508): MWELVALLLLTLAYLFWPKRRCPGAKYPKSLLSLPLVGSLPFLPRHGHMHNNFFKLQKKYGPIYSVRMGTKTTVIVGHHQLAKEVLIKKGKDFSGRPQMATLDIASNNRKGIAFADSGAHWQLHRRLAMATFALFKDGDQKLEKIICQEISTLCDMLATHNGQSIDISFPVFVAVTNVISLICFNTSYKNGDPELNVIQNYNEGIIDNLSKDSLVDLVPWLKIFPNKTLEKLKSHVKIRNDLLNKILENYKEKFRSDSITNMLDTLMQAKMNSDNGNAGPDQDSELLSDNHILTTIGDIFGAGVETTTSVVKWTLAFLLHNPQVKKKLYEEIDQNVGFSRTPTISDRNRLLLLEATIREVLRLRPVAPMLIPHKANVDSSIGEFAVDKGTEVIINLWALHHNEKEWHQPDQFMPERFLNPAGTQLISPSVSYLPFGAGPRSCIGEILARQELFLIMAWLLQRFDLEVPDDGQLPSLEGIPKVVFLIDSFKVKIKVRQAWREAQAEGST
Method: (§1) The conversion of radiolabeled pregnenolone to 17α-hydroxypregnenolone and DHEA by 17α-hydroxylase/C17,20 -lyase was measured by incubating human testicular microsomes with different concentration of test compounds. Reverse phase HPLC was used to separate and accurately quantify the amount of substrate and metabolites. The 17α-hydroxylase and C17,20 -lyase activities were calculated separately. The activity of 17α-hydroxylase was calculated from the conversion of pregnenolone to 17α-hydroxypregnenolone and DHEA and the activity of C17,20 -lyase was based on the conversion of pregnenolone to DHEA. Although 17α-hydroxypregnenolone is the substrate converted to DHEA by C17,20 -lyase, it has been reported that this 17α-hydroxy intermediate is not released from the enzyme binding site during conversion (Nakajin et al., 1981a,b). Also, there are species differences in substrate requirements. Pregnenolone is the natural substrate rather than progesterone for human testicular 17α-hydroxylase and C17,20 -lyase. Therefore, pregnenolone was used as substrate for measuring the activity of this enzyme complex.

[6] = target: T3, Human Testicular C17,20-lyase (Homo sapiens, UniProt P05093); assay: Inhibition of human testicular C17,20-lyase (pregnenolone substrate, testicular microsomes); assay type: biochemical
T3 construct: incubating human testicular microsomes; from tissue; host or cells: human testis, microsomes
T3 sequence (P05093 1-508): T2 sequence (P05093 1-508)
Method: as §1

[7] = target: T4, Human Testicular 17α-Hydroxylase (Homo sapiens, UniProt P05093); assay: Inhibition of human testicular 17α-hydroxylase (pregnenolone substrate, testicular microsomes); assay type: biochemical
T4 construct: incubating human testicular microsomes; from tissue; host or cells: human testis, microsomes
T4 sequence (P05093 1-508): T2 sequence (P05093 1-508)
Method: as §1

[8] = test system: LNCaP human prostatic tumors; assay: Human prostatic cancer (LNCaP) xenograft in male nude mice; assay type: in vivo, human (LNCaP) tumors in BALB/c male athymic mice; conditions: five weeks
Method: We have reported that inoculation of MCF-7 breast cancer cells in Matrigel increases mammary tumor formation in nude mice (Yue et al., 1994). The same procedure was therefore utilized to develop tumors from human prostatic cancer cells (LNCAP) in male nude mice. BALB/c male athymic mice, 4-6 weeks old, were inoculated sc with LNCaP cells suspended in Matrigel (10 mg/ml). Four sites per mouse were injected with 1.8×10^6 cells in 0.1 ml Matrigel. Treatment began when the tumor reached about 100 mm^3 in volume. Tumors were measured before the treatment began and once a week during treatment. Tumor volume was calculated by the formula 4/3πr1^2 r2 (r1 <r2).At the end of treatment, the mice were sacrificed and individual tumors were weighed. The latency of tumor development was 30-40 days and overall tumorigenicity was 82%.
In a further experiment, two mice were treated with I-16 (1 mg/mouse/day, s.c.) beginning 45 days after cell inoculation. Two mice received vehicle as controls. […] The mean tumor weight was 198.78±72 mg in I-16 treated mice compared to 386.3±147.2 mg in the control group. In other experiments, I-47 and I-49 were effective in controlling tumor growth. The total tumor volume of the control mice increased to 884.0% of the initial volume.

[9] = test system: adrenal 17α-hydroxylase/C17,20-lyase; assay: Inhibition of adrenal 17α-hydroxylase/C17,20-lyase; assay type: biochemical; conditions: guinea pig adrenal
[10] = Table 1, NI = no inhibition, CI = complete inhibition, read-out: IC50 C17,20 lyase
[11] = Table 1, NI = no inhibition, read-out: IC50 17α-OHase
[12] = second figure of pair, read-out: IC50 C17,20-lyase
[13] = Table 3, first figure of 17α-hydroxylase/lyase pair, read-out: IC50 17α-hydroxylase
[14] = first figure of pair, read-out: IC50 17α-hydroxylase

Row | Structure (SMILES) | inhibition of testosterone-stimulated DNA synthesis (in words), 0.3 μM [2] | reversal of testosterone-stimulated DNA synthesis (in words), 1 μM [2] | reversal of DHT-stimulated LNCaP growth (in words) ([3]; 0.03 nM DHT) | IC50 ([4]; IC50 5α-reductase, Table 2) [nM] | inhibition at 0.01 µM [4] [%] | inhibition at 0.1 µM [4] [%] | inhibition of 17α-hydroxylase/C17,20-lyase (in words) [5] | IC50 [6, 10] [nM] | IC50 [7, 11] [nM] | IC50 ([4]; IC50 5α-reductase) [nM] | other results
1 | C[C@]12CC[C@H]3[C@@H](CC=C4C[C@@H](O)CC[C@@]43C)[C@@H]1CC[C@@H]2NC1CC1 [17β-(cyclopropylamino)androst-5ene-3-ol] |  |  |  |  |  |  |  |  |  |  | Ki [1]: 90 nM
2 | CCN(CC)C(=O)[C@H]1CC[C@H]2[C@@H]3CC[C@H]4N(C)C(=O)CC[C@]4(C)[C@H]3CC[C@]12C [Compound 4MA, reference compound] | highly effective | almost complete reversal | dose-dependent reversal | 10 | 71.9 | 92 |  |  |  |  | reversal of testosterone-stimulated LNCaP growth at 5 μM (in words) ([3]; 0.1 nM testosterone, inhibitor 5 μM): almost completely reversed; reversal of testosterone-stimulated LNCaP growth (in words) ([3]; 0.1 nM testosterone): dose-dependent reversal; IC50 ([3]; Homo sapiens, LNCaP, 216 h, read-out: concentration reducing the stimulatory effect of testosterone by 50%): ≤ 1000 nM
3 | CC(=NO)[C@H]1CC[C@H]2[C@@H]3CCC4=CC(=NO)CC[C@]4(C)[C@H]3CC[C@]12C [Compound I-43] |  | without effect |  |  |  |  | decreased activity | 70 | 90 |  | inhibition of 5α-reductase (in words) ([4]; NI = no inhibition): decreased activity; IC50 ([4]; read-out: IC50 5α-reductase, Table 2): 1270 nM
4 | C[C@]12CC[C@H](O)CC1=CC[C@@H]1[C@@H]2CC[C@]2(C)C(c3c[nH]cn3)=CC[C@@H]12 [Compound I-49, 17β-(4'-imidazolyl)-androsta-5,16-dien-3β-ol] |  | partially effective | dose-dependent reversal |  |  | 26.3 | potent inhibitors | 9 | 8 |  | reversal of DHT-stimulated LNCaP growth at 5 μM (in words) ([3]; 0.03 nM DHT, inhibitor 5 μM): nearly complete reversal; reversal of testosterone-stimulated LNCaP growth (in words) ([3]; 0.1 nM testosterone): dose-dependent reversal; fold increase of inhibition by 16,17 double bond ([5]; vs I-47): 2 fold; times more potent than ketoconazole ([5]; vs ketoconazole): 10-50 times; IC50 [6, 12]: 4 nM; total tumor volume (% of initial volume), 5 weeks ([8]; 4 mice per group, control 884.0%, FIG. 2): 315.3%; mean tumor weight, 5-week experiment ([8]; control 1310.5±1125.9 mg, I-49 p<0.05 vs control): 255.9 ± 176.9 mg; IC50 [7, 13]: 8.82 nM; IC50 [7, 14]: 4 nM; effect on adrenal enzyme (in words) [9]: very little effect
5 | C[C@@H](O)[C@H]1CC[C@H]2[C@@H]3CCC4=CC(=O)CC[C@]4(C)[C@H]3CC[C@]12C [Compound I-34] | partially effective | almost complete reversal | stimulation of growth above the level produced by DHT | 90 | 16.1 | 64.5 | potent inhibition |  |  | 90 | stimulation of LNCaP cell proliferation (in words) ([3]; 0.1 nM testosterone): stimulated cell proliferation
6 | C[C@H](O)[C@H]1CC[C@H]2[C@@H]3CCC4=CC(=O)CC[C@]4(C)[C@H]3CC[C@]12C [Compound I-33] | highly effective | almost complete reversal |  | 13 | 28.5 | 87.6 |  |  |  | 13 | stimulation of LNCaP cell proliferation (in words) ([3]; 0.1 nM testosterone): stimulated cell proliferation; IC50 ([6]; IC50 C17,20 lyase): 1430 nM; IC50 ([7]; IC50 17α-OHase): 2840 nM
7 | C[C@]12CC[C@H]3[C@@H](CCC4=CC(=O)CC[C@@]43C)[C@@H]1CC[C@@H]2c1c[nH]cn1 [Compound I-41, 17β-(4'-imidazolyl)-androst-4-en-3-one] |  | without effect |  |  |  |  |  | 5 | 59 | 122 | IC50 ([6]; Table 3, second figure of pair, CI = complete inhibition, read-out: IC50 lyase): 5.61 nM; IC50 [6, 12]: 5 nM; IC50 ([4]; IC50 5α-reductase, Table 3, NI = no inhibition): 122 nM; IC50 [7, 13]: 59.4 nM; IC50 [7, 14]: 59 nM
8 | C[C@]12CC[C@H]3[C@@H](CCC4=CC(=O)CC[C@@]43C)[C@@H]1CC[C@@H]2O [Testosterone, reference compound] |  |  |  |  |  |  |  |  |  |  | fold induction at 1 µM ([2]; Homo sapiens, read-out: stimulation of DNA synthesis by testosterone): ~2; fold induction at 0.0001 µM ([3]; Homo sapiens, LNCaP, 216 h, read-out: stimulation of LNCaP growth by testosterone): 2
